Patent publication US12447156B2, “Treating progressive familial intrahepatic cholestasis (PFIC) with IBAT inhibitors” (ALBIREO AB, priority 2020, dated 2025)

Legend:
Type in all cases: in vivo, human
[1] = test system: children with PFIC1 or PFIC2; test: PEDFIC 1: quality of life (PedsQL and PedsQL Family Impact Module)
Description: Study design and eligibility was as follows. In PEDFIC 1, patients were randomized 1:1:1 to receive oral, once-daily placebo, odevixibat 40 μg/kg/day, or odevixibat 120 μg/kg/day for 24 weeks; patients who completed 24 weeks of treatment could enroll in an open-label extension. Patients between the ages of 6 months and 18 years with a diagnosis of PFIC1 or PFIC2 were eligible for the study if they had elevated serum bile acid levels (defined as ≥100 μmol/L averaged from 2 samples taken prior to randomization, ≥7 days apart) and significant pruritus as reported by caregivers (average score ≥2 on a scale of 0-4 in the 2 weeks prior to randomization using an observer-reported outcome instrument).
A change from baseline to week 24 for the Pediatric QoL Inventory (PedsQL) questionnaire was assessed as an exploratory endpoint. Caregivers of patients ≥2 years old completed the PedsQL questionnaire, which assessed patient functioning in physical, emotional, social, and school domains; the output is a score between 0 and 100, where higher scores indicate better functioning and a higher change from baseline indicates an improvement in QoL, In addition, caregivers completed the PedsQL Family Impact Module, which assesses physical, emotional, social, and cognitive functioning as well as communication, worry, daily activities, and family relationship domains, also on a scale of 0 to 100. Total scores at baseline and at week 24 for all treatment groups as well as mean changes in scores from baseline to week 24 are presented for both odevixibat doses combined vs placebo; these are summarized descriptively.

patients with PFIC = test: Pooled PEDFIC 1/2 (up to 72 weeks): serum bile acids, pruritus and sleep parameters, correlations, responders
Description: Methods: PEDFIC 1 was a randomized, double-blind study in children with PFIC1 or PFIC2; patients received either once-daily placebo, odevixibat 40 μg/kg, or odevixibat 120 μg/k g for 24 weeks. PEDFIC 2 is an ongoing, 72 week extension study in patients with any type of PFIC in which all patients receive odevixibat 120 μg/kg/day. In both PEDFIC 1 and PEDFIC 2, eligible patients had elevated serum bile acids and significant pruritus at screening. Here, patient pruritus and sleep-related data (including tiredness during the day) were included, which were evaluated twice daily by caregivers using the validated PRUCISION scale via an electronic diary. Pruritus and tiredness responses range from 0 to 4, with higher scores indicating worse symptoms; other sleep assessments include questions with Yes/No response s. Correlations between percentage change from baseline in serum bile acids and change from baseline in observer-reported diary data (pruritus, sleep characteristics) were assessed as post hoc analyses and are summarized with Pearson coefficient s (r).

children with PFIC = test: Pooled PEDFIC 1/2 subgroup analysis by concomitant UDCA and/or rifampicin; conditions: for patients meeting criteria for serum bile acid response: after 48 weeks; for mean proportion of positive pruritus assessments (PPAs): over 48 weeks
Description: Methods: In the double-blind PEDFIC 1 study, children with PFIC1 or PFIC2 were randomized to placebo or odevixibat 40 or 120 μg/kg/day for 24 weeks. In PEDFIC 2, an ongoing, open label extension study, patients from PEDFIC 1 or new patients with any PFIC subtype received odevixibat 120 μg/kg/day. Concomitant UDCA and/or rifampicin were allowed if the patient was on a stable dose. This pooled analysis includes up to 48 weeks of odevixibat treatment from PEDFIC 1 and through the PEDFIC 2 interim data cut (37 weeks; range: 1-108 weeks). Pre-specified subgroup analyses evaluated the following outcomes based on use of UDCA and/or rifampicin: serum bile acid response (i.e., ≥70% reduction from baseline or serum bile acid levels ≤70 μmol/L after 48 weeks), proportion of positive pruritus assessments (PPAs) at the patient level (i.e., scratching score ≤1 or a ≥1-point drop from baseline on the validated PRUCISION instrument) over the 48-week treatment period, and treatment-emergent adverse events (TEAEs).

[2] = PEDFIC 1, all doses, placebo 7.9
[3] = Week 24, 120 μg/kg/day (n = 15)
[4] = patients not using UDCA and/or rifampicin
[5] = patients using UDCA and/or rifampicin

## CCCCC1(CCCC)CN(c2ccccc2)c2cc(SC)c(OCC(=O)N[C@@H](C(=O)N[C@@H](CC)C(=O)O)c3ccc(O)cc3)cc2S(=O)(=O)N1 [Odevixibat, 1,1-dioxo-3,3-dibutyl-5-phenyl-7-methylthio-8-(N-{(R)-α-[N-((S)-1-carboxypropyl)carbamoyl]-4-hydroxybenzyl}carbamoylmethoxy)-2,3,4,5-tetrahydro-1,2,5-benzothiadiazepine]
[1]; PEDFIC 1, all doses, placebo 0.5
  PedsQL total score, mean change from baseline to week 24: 7.8
[1]; PEDFIC 1, all doses, placebo 2.1
  PedsQL Family Impact Module Family relationships, mean change from baseline to week 24: 10.9
[1]; PEDFIC 1, all doses, placebo 3.2
  PedsQL Family Impact Module Cognitive, mean change from baseline to week 24: 16.4
[1]; PEDFIC 1, all doses, placebo 5.6
  PedsQL Family Impact Module Total score, mean change from baseline to week 24: 14.5
[1]; [2]
  PedsQL Family Impact Module Emotional, mean change from baseline to week 24: 13.4
  PedsQL Family Impact Module Worry, mean change from baseline to week 24: 12.8
[1]; PEDFIC 1, all doses, placebo 8.1
  PedsQL Family Impact Module Physical, mean change from baseline to week 24: 18.9
[1]; PEDFIC 1, all doses, placebo 8.5
  PedsQL Family Impact Module Social, mean change from baseline to week 24: 13.5
[1]; PEDFIC 1, all doses, placebo 9.3
  PedsQL Family Impact Module Daily activities, mean change from baseline to week 24: 21.1
[1]; PEDFIC 1, all doses, placebo 13.5
  PedsQL Emotional functioning, mean change from baseline to week 24: 14.1
[1]; PEDFIC 1, all doses, placebo −1.0
  PedsQL Social functioning, mean change from baseline to week 24: 3.6
[1]; PEDFIC 1, all doses, placebo −4.4
  PedsQL Family Impact Module Communication, mean change from baseline to week 24: 8.3
[1]; PEDFIC 1, all doses, placebo −5.3
  PedsQL school functioning, mean change from baseline to week 24: 2.3
[1]; PEDFIC 1, all doses, placebo −5.9
  PedsQL Physical functioning, mean change from baseline to week 24: 7.8
[1]; Week 24, 40 μg/kg/day (n = 19)
  PedsQL Family Impact Module Cognitive functioning, Mean (SE): 65.3 (4.9)
  PedsQL Family Impact Module Communication, Mean (SE): 57.0 (5.6)
  PedsQL Family Impact Module Daily activities, Mean (SE): 50.9 (6.1)
  PedsQL Family Impact Module Emotional functioning, Mean (SE): 55.8 (5.6)
  PedsQL Family Impact Module Family relationships, Mean (SE): 68.7 (5.9)
  PedsQL Family Impact Module Physical functioning, Mean (SE): 57.0 (5.7)
  PedsQL Family Impact Module Social functioning, Mean (SE): 61.8 (6.4)
  PedsQL Family Impact Module Total score, Mean (SE): 58.4 (4.7)
  PedsQL Family Impact Module Worry, Mean (SE): 47.9 (5.3)
[1]; Week 24, 40 μg/kg/day, n 9
  PedsQL School functioning, Mean (SE): 53.2 (5.2)
[1]; Week 24, 40 μg/kg/day, n 13
  PedsQL Emotional functioning, Mean (SE): 54.6 (4.7)
  PedsQL Physical functioning, Mean (SE): 56.3 (4.0)
  PedsQL Social functioning, Mean (SE): 63.1 (6.4)
  PedsQL Total score, Mean (SE): 56.8 (4.0)
[1]; [3]
  PedsQL Family Impact Module Cognitive functioning, Mean (SE): 67.7 (6.2)
  PedsQL Family Impact Module Communication, Mean (SE): 68.9 (5.6)
  PedsQL Family Impact Module Daily activities, Mean (SE): 54.4 (8.1)
  PedsQL Family Impact Module Emotional functioning, Mean (SE): 63.0 (5.9)
  PedsQL Family Impact Module Family relationships, Mean (SE): 72.7 (5.6)
  PedsQL Family Impact Module Physical functioning, Mean (SE): 63.3 (5.6)
  PedsQL Family Impact Module Social functioning, Mean (SE): 64.6 (7.6)
  PedsQL Family Impact Module Total score, Mean (SE): 63.5 (5.3)
  PedsQL Family Impact Module Worry, Mean (SE): 52.0 (5.8)
[1]; Week 24, 120 μg/kg/day, n 10
  PedsQL School functioning, Mean (SE): 63.3 (7.6)
[1]; Week 24, 120 μg/kg/day, n 11
  PedsQL Emotional functioning, Mean (SE): 59.6 (6.9)
  PedsQL Physical functioning, Mean (SE): 56.8 (8.7)
  PedsQL Social functioning, Mean (SE): 65.9 (8.6)
  PedsQL Total score, Mean (SE): 60.7 (7.0)
[1]; Week 24, All Doses (n = 34)
  PedsQL Family Impact Module Cognitive functioning, Mean (SE): 66.3 (3.8)
  PedsQL Family Impact Module Communication, Mean (SE): 62.3 (4.1)
  PedsQL Family Impact Module Daily activities, Mean (SE): 52.5 (4.9)
  PedsQL Family Impact Module Emotional functioning, Mean (SE): 59.0 (4.1)
  PedsQL Family Impact Module Family relationships, Mean (SE): 70.4 (4.1)
  PedsQL Family Impact Module Physical functioning, Mean (SE): 59.8 (4.0)
  PedsQL Family Impact Module Social functioning, Mean (SE): 63.1 (4.8)
  PedsQL Family Impact Module Total score, Mean (SE): 60.6 (3.5)
  PedsQL Family Impact Module Worry, Mean (SE): 49.7 (3.9)
[1]; Week 24, All Doses, n 19
  PedsQL School functioning, Mean (SE): 58.5 (4.7)
[1]; Week 24, All Doses, n 24
  PedsQL Emotional functioning, Mean (SE): 56.9 (4.0)
  PedsQL Physical functioning, Mean (SE): 56.5 (4.4)
  PedsQL Social functioning, Mean (SE): 64.4 (5.1)
  PedsQL Total score, Mean (SE): 58.6 (3.8)
Patients with PFIC; pooled PEDFIC 1/2, 18/84 patients
  overall incidence of any event of diarrhea: 21%
Patients with PFIC; pooled PEDFIC 1/2, 71 of 84 patients, up to 72 weeks
  patients with any TEAE: 85%
Patients with PFIC; pooled PEDFIC 1/2, 84 patients
  TEAEs mild or moderate in severity: 90%
  serious drug-related TEAEs or deaths: No serious drug-related TEAEs or deaths occurred
Patients with PFIC; pooled PEDFIC 1/2, during odevixibat treatment (up to 72 weeks)
  patients who met criteria for serum bile acid response: approximately 40%
Patients with PFIC; pooled PEDFIC 1/2, n 32, baseline 246 μmol/L
  Serum bile acids, Change From Baseline to Weeks 49-72, Mean: −53% (9%)
Patients with PFIC; pooled PEDFIC 1/2, n 34, baseline 2.3
  Tiredness score, Change From Baseline to Weeks 49-72, Mean (SE): −1.2 (0.2)
Patients with PFIC; pooled PEDFIC 1/2, n 34, baseline 2.8
  Pruritus score, Change From Baseline to Weeks 49-72, Mean (SE): −1.5 (0.2)
Patients with PFIC; pooled PEDFIC 1/2, n 34, baseline 8
  Number of awakenings, Change From Baseline to Weeks 49-72, Mean (SE): −7 (3)
Patients with PFIC; pooled PEDFIC 1/2, n 34, baseline 24
  Days taking medications to induce sleep, Change From Baseline to Weeks 49-72, Mean (SE): −3 (4) %
Patients with PFIC; pooled PEDFIC 1/2, n 34, baseline 38
  Days with scratching associated with bleeding, Change From Baseline to Weeks 49-72, Mean (SE): −21 (7) %
Patients with PFIC; pooled PEDFIC 1/2, n 34, baseline 67
  Days patient slept with caregiver, Change From Baseline to Weeks 49-72, Mean (SE): −38 (8) %
Patients with PFIC; pooled PEDFIC 1/2, n 34, baseline 75
  Days patient needed soothing, Change From Baseline to Weeks 49-72, Mean (SE): −48 (9) %
Patients with PFIC; pooled PEDFIC 1/2, n 34, baseline 78
  Days patient needed help falling asleep, Change From Baseline to Weeks 49-72, Mean (SE): −55 (8) %
Patients with PFIC; pooled PEDFIC 1/2, up to 72 weeks
  patients achieving a treatment response (serum bile acid and/or pruritus criteria): approximately 60%
Patients with PFIC; up to 72 weeks of odevixibat treatment
  tolerability: generally well tolerated
Children with PFIC; patients not using UDCA
  patients meeting criteria for serum bile acid response: 40%
  mean proportion of positive pruritus assessments (PPAs): 72%
  incidence of TEAEs: 87%
Children with PFIC; [4]
  patients meeting criteria for serum bile acid response: 67%
  mean proportion of positive pruritus assessments (PPAs): 69%
  incidence of TEAEs: 90%
Children with PFIC; patients not using rifampicin
  patients meeting criteria for serum bile acid response: 82%
  mean proportion of positive pruritus assessments (PPAs): 81%
  incidence of TEAEs: 86%
Children with PFIC; patients using UDCA
  patients meeting criteria for serum bile acid response: 74%
  mean proportion of positive pruritus assessments (PPAs): 65%
  incidence of TEAEs: 77%
Children with PFIC; [5]
  patients meeting criteria for serum bile acid response: 67%
  mean proportion of positive pruritus assessments (PPAs): 66%
  incidence of TEAEs: 78%
Children with PFIC; patients using rifampicin
  patients meeting criteria for serum bile acid response: 54%
  mean proportion of positive pruritus assessments (PPAs): 56%
  incidence of TEAEs: 75%
